These results are taken from patent US8318489B2, “Prostacyclin directed differentiation of cardiomyocytes from human embryonic stem cells” (priority 2005, dated 2012).

Holding throughout (assay type): cell-based, human
Experiment [1] has as its system hES cells. The experiment can be described thus: Cardiomyocyte quantification via cytospin (MF-20 / αMHC staining). To be noted: for cardiomyocyte yield compared to bSFS alone: L-IGF-I 5.0 ng/ml, AA 5.0 μM, FGF2 […] into bSFS. How it is done: EBs were washed twice with PBS (without calcium and magnesium) and dissociated to single cells using trypsin (Invitrogen). […] The cell pellet was resuspended in PBS and a cell count performed. 100,000 cells were spun at 500 rpm for 5 min onto glass slides at low acceleration using a cytospin system (Shandon). Adherent cells were fixed, stained and the total cell number (DAPI staining of cell nuclei) and the number of sarcomeric alpha myosin heavy chain positive cells (αMHC, MF-20 Ab, Hybridoma Bank, Iowa; 1:200 followed by respective rabbit-anti mouse Cy3-labeled secondary Ab 1:500, Zymed) were counted in at least 3 independent fields of view at 20× magnification with at least 300 nuclei per field; fields were randomly selected in the DAPI channel (Zeiss Axiovert 200M, Zeiss) avoiding bias towards cardiomyocyte content. The percentage of cardiomyocytes compared to the total cell nuclei number was calculated.
Readouts were performed on day 13. […] The percentage of cardiomyocytes was counted via cytospin and the cardiomyocyte yield was calculated from the total cell count per well and the percentage of cardiomyocytes. Results are presented in Table 2 which provides an analysis on day 12 EBs differentiated in the presence of respective media added with substances as indicated in the table. Differentiation was performed in suspension in a low attachment 6-well format. Average numbers per well of a 6-well plate are presented.

Experiment [2] has as its system hES cells. The experiment can be described thus: Real time RT-PCR for cardiac markers (α-MHC, ANF). How it is done: RNA extraction: EBs at the end of the twelve day period were harvested. […] Trizol (Invitrogen) was added before freezing the EBs at -80° C. to ease cell lysis. Frozen samples were thawed and […]. Chloroform was added to the sample and incubated for 3 min at room temperature. The sample was centrifuged for 15 min at 13000 rpm at 4° C. and the aqueous phase collected. An equal volume of 70% ethanol was added before the sample was loaded onto an RNeasy mini column (Qiagen). The column was centrifuged for 15 sec at ≧8000 g. The rest of the purification steps were performed according to manufacturer's instructions. RNA was eluted in RNase-free water. 5 μg of the RNA sample was then treated with DNase (Invitrogen) in a volume of 50 μl. The mixture was incubated at room temperature for 30 min and heat inactivated for 10 min at 80° C. before cooling rapidly on ice. […] Samples were incubated for 1 hour at 37° C. before the reaction was terminated for 5 min at 95° C. RT-PCR was performed using 100 ng of cDNA with the following conditions: Cycle 1 (40×) denaturation at 95° C. for 10 s, annealing at 58° C. for 30 s and extension at 72° C. for 45 s. Melting curve step was included at the end with the following conditions: […] The gene primers used are α-MHC (sense primer: […] NO: 1); antisense primer: […] (sense primer: […] NO: 3); antisense primer […] NO: 4)) and β-Actin (sense primer: […] […]
(In qPCR the cycle at which signal appears reflects the starting amount.)

Experiment [3] has as its system hES cells. As to the kind of experiment: Embryoid body differentiation of hES cells, visual scoring of beating EBs. The settings on record: for CM induction activity (number of beating areas): growth factor 10 ng/ml added to END2-CM, day 12, compared to END2-CM alone; for effect on induction of cardiomyocytes: supplemented to DMEM3 (giving bSFS). The method, then:
This procedure describes the formation of embryoid bodies (EB) from collagenase-derived hES cell cultures. After formation the EBs were then exposed to END2 conditioned medium (CM).
Enzymatically passaged hES cells grown on feeder cells were washed once with PBS^+ and treated with Collagenase IV (1 mg/ml) for 3-4 min at 37° C. The Collagenase IV solution was replaced by DMEM and the cells were mechanically dissociated with a pipette tip. Cells were then harvested using a cell scraper and the cell suspension was transferred to a 50 ml tube (Falcon). Cell clumps were collected by gravity and the supernatant was aspirated. Cells were resuspended in fresh DMEM medium aiming to uniformly disperse the cell clumps in the suspension. An equal volume of the cell suspension was then transferred to ultra low attachment plates (Costar). Usually 6-well plates were used and cells were cultured in 2 ml of medium. Alternatively, cells can be seeded into plates under conditions supporting cell adherence to induce differentiation of hES cells attached to a surface.
In suspension culture, EBs are formed in ultra low attachment plates in SF medium over night. After over night incubation SF medium was replaced by fresh SF medium or END2-CM respectively for further differentiation. Subsequent medium changes were performed every 3-4 days. Usually, cells were cultured over a period of 12-13 days before the visual analysis of the proportion of beating EBs under a microscope was performed followed by cell collection for additional readouts. Multiple beating areas on single EBs were not counted separately. Values are expressed as a percentage of contracting EBs compared to […] in a single well of a 6-well tray. Cell harvest and analysis at time points other then 12-13 days after EB formation is indicated in the respective examples and figures of this embodiment. For EB scoring and other analytical methods hES cell differentiation was performed in triplicates applying the same culture conditions (e.g. the same medium added) in 3 independent wells of a 6-well plate. An average value per well was calculated and presented.

Experiment [4] relates to Transgenic hES cells carrying α-MHCneo. The experiment can be described thus: G418 selection of transgenic hES-derived cardiomyocytes, MF-20 staining. How it is done:
Transgenic hES cells carrying α-MHCneo were differentiated in END-2 conditioned media as described in Example 8 and then selected with 200 µg/ml or 400 μg/ml G418 for various periods. Cells were dissociated by trypsin and plated onto chamber slides. Transgenic cardiomyocytes that were not selected with G418 were also plated as a control. Cells were then fixed by 2% paraformaldehyde and stained with the MF-20 antibody, which recognizes cardiac α-MHC. Cells were counterstained with haematoxylin to reveal nuclei. Cells […] for MF-20 staining in each slide preparation were counted and calculated as a percentage of total nuclei.

The subject of another experiment is H3M11 cardiomyocytes. As to the kind of experiment: Microelectrode array recording of selected cardiomyocytes. The settings on record: 10 μM isoproterenol; from 46 beats/min before addition. The text has this: H3M11, one of the transgenic hES lines carrying the mouse α-MHCneo transgene, was differentiated in END-2 conditioned media to induce cardiomyocytes and then selected with G418 for 1 week. G418-selected H3M11 cardiomyocytes were dissociated and plated on microelectrode array chips each containing 64 electrodes (Multi Channel Systems MCS GmbH, Reutlingen, Germany). Extracellular recordings were made with the MEA1060 amplifier and MC-Rack software. Sampling rate was 10 kHz. A control recording was made before addition of compounds.

The mark [5] stands for this setting: insulin 0.1-10 μg/ml added to END2-CM.

For `CC(=O)O` [AA, acetic acid], the “cardiomyocyte yield compared to bSFS alone” value with hES cells [1] is reported as “some increase”. For the compound “insulin: Insulin (Roche) spiked into END2-CM”, in the experiment on hES cells [2] (setting [5]), the “relative expression of early cardiomyocyte markers (MesP1, NRx2.5, ANF, α-MHC)” value was “dose dependent decrease in expression”. Moreover, the “cardiomyocyte formation from hESC” value is “complete inhibition” with hES cells [3] (insulin 10 μg/ml added to END2-CM) and “dose dependent inhibition” with hES cells [3] (setting [5]).

In the case of Igf2: recombinant human Igf2 (R&D), the “CM induction activity (number of beating areas)” value in the experiment with hES cells [3] is on record as “enhance CM induction activity”. For “Transferrin: medium supplement, 0.0055 mg/ml Transferrin (Roche)”, the “effect on induction of cardiomyocytes” value in the experiment with hES cells [3] was “not inhibitory”.

Turning to “FGF2: Basic Fibroblast Growth Factor; Invitrogen”, the “cardiomyocyte yield compared to bSFS alone” value in the experiment on hES cells [1] is given as “some increase”. For `CN[C@@H]1[C@@H](O)[C@@H](O[C@@H]2[C@@H](O)[C@H](O[C@H]3O[C@H]([C@@H](C)O)[C@@H](O)[C@H](O)[C@H]3N)[C@@H](N)C[C@H]2N)OC[C@]1(C)O` [G418], the Percent cardiomyocytes in experiment [4] (G418 200 μg/ml for 10 days) worked out at 99.02%; in experiment [4] (G418 200 μg/ml for 16 days), 99.20%; in experiment [4] (G418 400 μg/ml 13 days) it was 99.53%; in experiment [4] (G418 400 μg/ml for 7 days), 99.85%. Further, in experiment [4] (two different G418 concentrations for various days), the “cells positive for the cardiac marker” value is “greater than 99%”.

As to `CCCCC[C@H](O)/C=C/[C@@H]1[C@H]2C/C(=C/CCCC(=O)[O-])O[C@H]2C[C@H]1O.[Na+]` [PGI2, (5Z,9α,11α,13E,15S)-6,9-Epoxy-11,15-dihydroxyprosta-5,13-dien-1-oic acid Sodium salt], the “percentage of the overall cell population that forms cardiomyocytes” value with hES cells [1] (bSFS+PGI2, cytospin MF20) is “equivalent to that observed in END2-CM cultures”. Also, the “expression of cardiomyocyte marker genes α-MHC and ANF” value in the experiment with hES cells [2] (bSFS+PGI2 compared to END-CM) is recorded as “equivalent, if not enhanced expression”. In addition, the cardiomyocyte inducing activity entry in the experiment on hES cells [3] (PGI2 0.2 and 2.0 μM in bSFS) is listed as “increase in cardiomyocyte inducing activity to levels similar to that observed with END2-CM”. Besides, the “percentage of beating EBs” value in the experiment on hES cells [3] (PGI2 2, 20, 200, 2000 nM in DMEM3, day 12, in comparison with basic DMEM3) is recorded as “significant increases”.

`O=[Se]([O-])[O-].[Na+].[Na+]` [Selenium, sodium Selenite]: the “effect on induction of cardiomyocytes” value in the experiment with hES cells [3] is recorded as “not inhibitory”. “Scf: recombinant human Scf, stem cell factor (CytoLab)”: the “CM induction activity (number of beating areas)” value with hES cells [3] is listed as “enhance CM induction activity”. Regarding `CC(C)NCC(O)c1ccc(O)c(O)c1` (stereo not shown) [isoproterenol], the beating frequency in the experiment with H3M11 cardiomyocytes turned out to be 70 beats/min.
